According to ChEMBL document CHEMBL5291721, “A preclinical secondary pharmacology resource illuminates target-adverse drug reaction associations of marketed drugs” (Nat Commun, 2023):

What was measured:
[1] = molecular target: cGMP-inhibited 3',5'-cyclic phosphodiesterase 3A (Homo sapiens, UniProt Q14432); format: functional
[2] = molecular target: T1, Prostaglandin G/H synthase 1 (Rattus norvegicus, UniProt Q63921); format: functional
T1 sequence (Q63921 whole entry): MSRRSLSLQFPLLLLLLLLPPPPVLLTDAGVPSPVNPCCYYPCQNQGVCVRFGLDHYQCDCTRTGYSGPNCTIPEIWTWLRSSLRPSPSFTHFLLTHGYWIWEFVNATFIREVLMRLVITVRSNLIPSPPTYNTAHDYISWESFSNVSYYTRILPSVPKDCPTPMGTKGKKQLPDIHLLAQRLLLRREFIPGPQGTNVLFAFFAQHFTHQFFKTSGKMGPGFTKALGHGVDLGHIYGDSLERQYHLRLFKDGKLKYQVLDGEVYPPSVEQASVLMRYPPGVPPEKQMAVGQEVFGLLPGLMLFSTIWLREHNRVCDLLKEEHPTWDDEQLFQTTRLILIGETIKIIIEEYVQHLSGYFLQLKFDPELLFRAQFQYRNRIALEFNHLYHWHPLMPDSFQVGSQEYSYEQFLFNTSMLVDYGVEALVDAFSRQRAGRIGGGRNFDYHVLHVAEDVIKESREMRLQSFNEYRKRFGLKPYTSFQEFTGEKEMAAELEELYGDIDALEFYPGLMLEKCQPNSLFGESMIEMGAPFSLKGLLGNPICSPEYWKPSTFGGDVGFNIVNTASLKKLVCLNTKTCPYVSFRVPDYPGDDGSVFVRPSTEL

[3] = molecular target: T2, Equilibrative nucleoside transporter 1 (Homo sapiens, UniProt Q99808)
T2 sequence (Q99808 whole entry): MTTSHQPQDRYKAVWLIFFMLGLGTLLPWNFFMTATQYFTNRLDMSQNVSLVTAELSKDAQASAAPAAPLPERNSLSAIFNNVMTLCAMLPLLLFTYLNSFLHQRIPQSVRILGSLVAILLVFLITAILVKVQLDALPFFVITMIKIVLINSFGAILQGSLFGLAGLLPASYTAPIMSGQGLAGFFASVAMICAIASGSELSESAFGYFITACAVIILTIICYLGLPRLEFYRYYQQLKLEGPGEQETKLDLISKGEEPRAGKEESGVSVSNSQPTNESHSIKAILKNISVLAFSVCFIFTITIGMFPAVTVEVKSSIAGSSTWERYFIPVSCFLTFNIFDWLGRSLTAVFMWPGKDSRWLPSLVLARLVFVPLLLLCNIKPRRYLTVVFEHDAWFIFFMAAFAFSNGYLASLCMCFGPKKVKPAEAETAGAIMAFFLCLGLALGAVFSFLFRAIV

[4] = molecular target: T3, Muscarinic acetylcholine receptor M2 (Homo sapiens, UniProt P08172); format: functional, cell-based
T3 sequence (P08172 whole entry): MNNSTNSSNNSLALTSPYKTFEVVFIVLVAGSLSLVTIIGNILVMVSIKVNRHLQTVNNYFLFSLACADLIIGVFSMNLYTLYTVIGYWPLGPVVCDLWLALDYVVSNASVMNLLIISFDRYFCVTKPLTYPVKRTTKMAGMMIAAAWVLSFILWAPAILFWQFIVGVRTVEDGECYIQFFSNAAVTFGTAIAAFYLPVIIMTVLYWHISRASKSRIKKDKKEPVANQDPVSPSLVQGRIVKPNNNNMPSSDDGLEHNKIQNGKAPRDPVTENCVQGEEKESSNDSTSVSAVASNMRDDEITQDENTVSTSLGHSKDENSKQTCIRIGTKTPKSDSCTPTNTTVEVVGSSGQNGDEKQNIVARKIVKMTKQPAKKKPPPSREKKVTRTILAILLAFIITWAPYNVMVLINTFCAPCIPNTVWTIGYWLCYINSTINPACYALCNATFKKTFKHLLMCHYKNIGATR

Histamine H2 receptor = Histamine H2 receptor (Homo sapiens, UniProt P25021); format: functional, cell-based
Histamine H3 receptor = Histamine H3 receptor (Homo sapiens, UniProt Q9Y5N1)
[5] = molecular target: Beta-1 adrenergic receptor (Homo sapiens, UniProt P08588); format: functional
Motilin receptor = Motilin receptor (Homo sapiens, UniProt O43193)
[6] = molecular target: T4, Alpha-2A adrenergic receptor (Homo sapiens, UniProt P08913); format: functional, cell-based
T4 sequence (P08913 whole entry): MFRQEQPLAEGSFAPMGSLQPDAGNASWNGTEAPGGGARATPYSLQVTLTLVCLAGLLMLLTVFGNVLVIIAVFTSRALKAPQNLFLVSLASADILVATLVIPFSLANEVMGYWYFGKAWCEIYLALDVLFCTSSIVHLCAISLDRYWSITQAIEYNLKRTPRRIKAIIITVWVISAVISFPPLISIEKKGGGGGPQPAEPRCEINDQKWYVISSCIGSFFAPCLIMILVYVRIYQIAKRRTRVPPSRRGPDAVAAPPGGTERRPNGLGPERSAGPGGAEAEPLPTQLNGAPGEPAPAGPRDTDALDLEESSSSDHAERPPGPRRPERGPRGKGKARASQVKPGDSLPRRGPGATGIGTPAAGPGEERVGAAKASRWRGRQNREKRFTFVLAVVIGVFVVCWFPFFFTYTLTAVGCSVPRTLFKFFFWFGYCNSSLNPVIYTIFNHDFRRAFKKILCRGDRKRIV

Endothelin-1 receptor = molecular target: T5, Endothelin-1 receptor (Homo sapiens, UniProt P25101)
T5 sequence (P25101 whole entry): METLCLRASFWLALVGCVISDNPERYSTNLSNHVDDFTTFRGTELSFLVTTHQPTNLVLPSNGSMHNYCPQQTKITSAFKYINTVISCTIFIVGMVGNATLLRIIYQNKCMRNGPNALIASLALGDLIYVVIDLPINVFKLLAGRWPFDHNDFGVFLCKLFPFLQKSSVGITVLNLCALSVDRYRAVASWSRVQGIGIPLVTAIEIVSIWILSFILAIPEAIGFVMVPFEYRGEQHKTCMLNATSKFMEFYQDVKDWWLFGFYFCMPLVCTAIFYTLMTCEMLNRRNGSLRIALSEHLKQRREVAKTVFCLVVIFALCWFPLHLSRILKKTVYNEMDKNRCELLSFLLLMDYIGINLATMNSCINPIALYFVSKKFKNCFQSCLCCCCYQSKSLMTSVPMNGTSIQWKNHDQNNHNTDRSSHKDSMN

Vasopressin V1a receptor = Vasopressin V1a receptor (Homo sapiens, UniProt P37288)
[7] = molecular target: Gamma-aminobutyric acid receptor subunit alpha-1 (Rattus norvegicus, UniProt P62813)
Also: assay procedure not described here.

Vasopressin V1a receptor, sequence (P37288 whole entry): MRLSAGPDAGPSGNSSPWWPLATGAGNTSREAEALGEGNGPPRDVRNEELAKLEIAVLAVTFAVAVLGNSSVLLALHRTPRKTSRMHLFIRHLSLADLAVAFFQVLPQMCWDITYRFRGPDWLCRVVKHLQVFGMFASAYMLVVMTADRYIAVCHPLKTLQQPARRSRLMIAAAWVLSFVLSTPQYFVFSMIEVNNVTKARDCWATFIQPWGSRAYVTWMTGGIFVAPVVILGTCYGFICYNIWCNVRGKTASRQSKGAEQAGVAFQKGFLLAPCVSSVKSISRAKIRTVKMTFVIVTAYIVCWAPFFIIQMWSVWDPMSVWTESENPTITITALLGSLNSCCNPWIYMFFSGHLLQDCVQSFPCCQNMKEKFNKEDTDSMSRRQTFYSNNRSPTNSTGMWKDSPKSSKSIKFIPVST
Motilin receptor, sequence (O43193 whole entry): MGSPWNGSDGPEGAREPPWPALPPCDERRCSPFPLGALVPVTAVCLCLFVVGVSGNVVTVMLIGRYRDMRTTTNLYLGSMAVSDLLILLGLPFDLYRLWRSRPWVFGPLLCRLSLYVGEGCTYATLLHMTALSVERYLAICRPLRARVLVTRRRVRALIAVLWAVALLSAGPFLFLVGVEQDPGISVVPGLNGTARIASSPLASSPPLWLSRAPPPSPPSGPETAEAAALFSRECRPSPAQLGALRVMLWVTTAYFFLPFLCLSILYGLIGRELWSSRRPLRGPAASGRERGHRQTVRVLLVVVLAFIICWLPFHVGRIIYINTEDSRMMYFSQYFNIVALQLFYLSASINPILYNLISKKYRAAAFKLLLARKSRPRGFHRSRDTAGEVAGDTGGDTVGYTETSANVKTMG
Histamine H2 receptor, sequence (P25021 whole entry): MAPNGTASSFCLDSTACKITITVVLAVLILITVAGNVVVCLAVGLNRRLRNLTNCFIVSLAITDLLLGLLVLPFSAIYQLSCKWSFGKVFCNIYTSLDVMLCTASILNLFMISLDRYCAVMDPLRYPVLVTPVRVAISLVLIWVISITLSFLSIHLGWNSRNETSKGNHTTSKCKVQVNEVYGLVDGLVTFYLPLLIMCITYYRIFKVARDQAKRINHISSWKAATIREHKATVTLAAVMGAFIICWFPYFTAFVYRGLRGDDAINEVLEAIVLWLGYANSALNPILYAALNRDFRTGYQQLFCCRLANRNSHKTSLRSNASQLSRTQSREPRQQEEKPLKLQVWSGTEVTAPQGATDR
Histamine H3 receptor, sequence (Q9Y5N1 whole entry): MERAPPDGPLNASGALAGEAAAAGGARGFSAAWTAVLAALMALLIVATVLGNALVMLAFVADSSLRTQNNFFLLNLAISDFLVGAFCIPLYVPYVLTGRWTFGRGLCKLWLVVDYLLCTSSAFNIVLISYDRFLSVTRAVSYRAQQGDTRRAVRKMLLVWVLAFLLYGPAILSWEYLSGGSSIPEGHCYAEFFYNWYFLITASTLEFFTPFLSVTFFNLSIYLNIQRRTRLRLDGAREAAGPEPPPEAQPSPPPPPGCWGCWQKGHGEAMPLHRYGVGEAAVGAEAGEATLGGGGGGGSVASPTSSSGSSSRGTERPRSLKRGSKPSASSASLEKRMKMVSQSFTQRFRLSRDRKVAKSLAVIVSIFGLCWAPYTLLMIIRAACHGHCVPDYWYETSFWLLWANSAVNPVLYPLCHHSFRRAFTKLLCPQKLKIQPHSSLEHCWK
Gamma-aminobutyric acid receptor subunit alpha-1, sequence (P62813 whole entry): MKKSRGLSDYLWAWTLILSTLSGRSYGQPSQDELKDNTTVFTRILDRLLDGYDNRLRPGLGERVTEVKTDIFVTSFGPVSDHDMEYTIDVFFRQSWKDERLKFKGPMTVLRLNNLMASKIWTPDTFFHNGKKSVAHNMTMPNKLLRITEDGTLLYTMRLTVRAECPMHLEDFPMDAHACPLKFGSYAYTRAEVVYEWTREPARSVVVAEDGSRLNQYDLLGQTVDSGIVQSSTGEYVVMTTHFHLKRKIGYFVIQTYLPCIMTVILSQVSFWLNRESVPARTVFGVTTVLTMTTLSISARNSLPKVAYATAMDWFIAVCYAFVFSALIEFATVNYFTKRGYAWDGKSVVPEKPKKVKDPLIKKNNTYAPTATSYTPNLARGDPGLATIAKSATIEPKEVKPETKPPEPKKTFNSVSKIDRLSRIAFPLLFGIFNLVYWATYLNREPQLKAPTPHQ
cGMP-inhibited 3',5'-cyclic phosphodiesterase 3A, sequence (Q14432 whole entry): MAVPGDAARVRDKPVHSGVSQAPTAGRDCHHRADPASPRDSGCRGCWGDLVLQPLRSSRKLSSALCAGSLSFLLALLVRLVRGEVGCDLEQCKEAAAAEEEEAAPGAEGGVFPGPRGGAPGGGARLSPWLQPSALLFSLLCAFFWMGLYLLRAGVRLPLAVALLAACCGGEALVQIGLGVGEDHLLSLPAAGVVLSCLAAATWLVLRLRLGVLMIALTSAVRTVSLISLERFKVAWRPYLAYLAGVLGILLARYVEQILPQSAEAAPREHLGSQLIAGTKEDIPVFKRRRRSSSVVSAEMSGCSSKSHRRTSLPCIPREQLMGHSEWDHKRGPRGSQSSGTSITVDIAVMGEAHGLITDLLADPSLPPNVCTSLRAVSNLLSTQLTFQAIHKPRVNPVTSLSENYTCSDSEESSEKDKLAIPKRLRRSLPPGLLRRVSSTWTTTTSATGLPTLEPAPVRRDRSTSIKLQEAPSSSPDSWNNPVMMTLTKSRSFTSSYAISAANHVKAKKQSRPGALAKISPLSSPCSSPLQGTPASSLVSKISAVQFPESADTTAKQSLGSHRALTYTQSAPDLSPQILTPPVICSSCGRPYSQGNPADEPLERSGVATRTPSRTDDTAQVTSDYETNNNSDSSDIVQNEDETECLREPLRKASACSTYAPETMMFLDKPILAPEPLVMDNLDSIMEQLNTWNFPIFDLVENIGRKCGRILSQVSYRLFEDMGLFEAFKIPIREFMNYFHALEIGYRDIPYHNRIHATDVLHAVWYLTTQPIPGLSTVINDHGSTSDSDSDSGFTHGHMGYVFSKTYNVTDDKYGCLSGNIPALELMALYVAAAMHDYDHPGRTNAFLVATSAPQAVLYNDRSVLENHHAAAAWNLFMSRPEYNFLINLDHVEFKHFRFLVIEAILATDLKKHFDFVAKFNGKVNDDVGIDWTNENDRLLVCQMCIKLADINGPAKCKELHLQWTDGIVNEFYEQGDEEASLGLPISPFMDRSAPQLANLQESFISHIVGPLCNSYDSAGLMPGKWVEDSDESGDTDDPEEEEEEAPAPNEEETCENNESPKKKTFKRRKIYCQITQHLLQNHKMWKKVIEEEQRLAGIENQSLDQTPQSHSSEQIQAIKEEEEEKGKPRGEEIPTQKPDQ
Beta-1 adrenergic receptor, sequence (P08588 whole entry): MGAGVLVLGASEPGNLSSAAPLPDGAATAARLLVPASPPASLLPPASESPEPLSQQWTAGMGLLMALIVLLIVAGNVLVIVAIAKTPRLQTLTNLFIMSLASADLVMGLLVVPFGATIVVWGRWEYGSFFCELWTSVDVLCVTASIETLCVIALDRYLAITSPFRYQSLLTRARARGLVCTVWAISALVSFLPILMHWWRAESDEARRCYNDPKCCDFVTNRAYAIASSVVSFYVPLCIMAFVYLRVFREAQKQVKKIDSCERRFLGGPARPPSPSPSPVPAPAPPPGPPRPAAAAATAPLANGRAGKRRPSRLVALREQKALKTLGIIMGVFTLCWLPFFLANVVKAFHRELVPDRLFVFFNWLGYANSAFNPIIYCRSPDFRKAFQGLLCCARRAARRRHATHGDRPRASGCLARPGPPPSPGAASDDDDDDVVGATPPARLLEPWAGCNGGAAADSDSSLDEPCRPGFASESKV

Row | Compound | AC50 [1] | AC50 [2] | AC50 [3] | AC50 [4] | AC50 (Histamine H2 receptor) | AC50 (Histamine H3 receptor) | AC50 [5] | AC50 (Motilin receptor) | AC50 [6] | AC50 (Endothelin-1 receptor) | AC50 (Vasopressin V1a receptor) | AC50 [7]
1 | COc1ccc(C(=O)Nc2ccccc2CCC2CCCCN2C)cc1 (stereo not given) [ENCAINIDE] | > 30 µM | > 30 µM | > 30 µM | > 10 µM | > 10 µM | > 10 µM | > 10 µM | > 10 µM | > 10 µM | > 30 µM | > 10 µM | > 10 µM
2 | NC1CCN(c2c(F)cc3c(=O)c(C(=O)O)cn(C4CC4)c3c2Cl)C1 (stereo not given) [CLINAFLOXACIN] |  |  |  |  |  |  |  |  |  | > 300 µM |  | 
3 | CCOc1ccc(Cc2cc([C@@H]3O[C@H](CO)[C@@H](O)[C@H](O)[C@H]3O)ccc2Cl)cc1 [DAPAGLIFLOZIN] | > 30 µM | > 30 µM | > 30 µM |  |  | > 10 µM | > 10 µM | > 10 µM |  |  | > 30 µM | > 10 µM
4 | COc1ccccc1N1CCN(CC(O)COc2cccc3ccccc23)CC1 (stereo not given) [NAFTOPIDIL] | > 30 µM | > 30 µM | 13 µM | > 30 µM | 1.3 µM |  | 1.1 µM |  | 3.7 µM |  |  | > 30 µM
5 | Cc1oc(=O)oc1CN1CCN(c2cc3c(cc2F)c(=O)c(C(=O)O)c2n3C(C)S2)CC1 (stereo not given) [PRULIFLOXACIN] | > 30 µM |  |  | > 30 µM | > 30 µM |  |  |  | > 30 µM |  |  | > 30 µM
6 | CCCC1O[C@@H]2C[C@H]3[C@@H]4CCC5=CC(=O)C=C[C@]5(C)[C@H]4[C@@H](O)C[C@]3(C)[C@]2(C(=O)CO)O1 (stereo not given in full) [BUDESONIDE] | > 30 µM | > 10 µM | > 10 µM | > 10 µM | > 10 µM | > 10 µM | > 10 µM | > 10 µM | > 10 µM |  | > 10 µM | > 10 µM
7 | CN1CCN(C2=Nc3ccccc3Sc3ccc(Cl)cc32)CC1 [CLOTHIAPINE] | > 30 µM |  |  | 6.7 µM | > 30 µM |  |  |  | > 30 µM |  |  | > 30 µM
8 | CN(C)CCc1c[nH]c2ccc(C[C@H]3COC(=O)N3)cc12 [ZOLMITRIPTAN] | > 30 µM | > 30 µM | > 30 µM | > 30 µM | > 30 µM | > 30 µM | > 30 µM | > 30 µM | > 30 µM | > 30 µM | > 30 µM | > 30 µM
9 | O=[N+]([O-])O[C@@H]1CO[C@H]2[C@@H]1OC[C@@H]2O [ISOSORBIDE MONONITRATE] | > 30 µM | > 30 µM | > 30 µM | > 10 µM | > 10 µM | > 10 µM | > 10 µM | > 10 µM | > 10 µM | > 30 µM | > 10 µM | > 10 µM
10 | C=CCN1C[C@H](C(=O)N(CCCN(C)C)C(=O)NCC)C[C@@H]2c3cccc4[nH]cc(c34)C[C@H]21 [CABERGOLINE] | > 30 µM | > 10 µM | > 30 µM | > 30 µM | 4.23 µM |  | > 10 µM | > 10 µM |  |  | > 10 µM | > 10 µM
11 | CCC(CC)(CC(=O)Nc1cccc(/C=C/c2nc(C3CCC3)cs2)c1)C(=O)O |  | > 30 µM | > 30 µM |  |  | > 30 µM | 14 µM | > 30 µM |  | > 30 µM | > 30 µM | 
12 | CN(C)CCC=C1c2ccccc2C=Cc2ccccc21 [CYCLOBENZAPRINE] | > 30 µM | > 30 µM | > 30 µM |  | > 10 µM | > 10 µM | > 10 µM | > 10 µM | > 10 µM | > 30 µM | > 30 µM | > 10 µM
13 | CN(C)CC/C=C1\c2ccccc2CSc2ccccc21 [DOTHIEPIN] | > 30 µM | > 30 µM |  | 1.4 µM | > 30 µM | 29 µM | > 30 µM | > 30 µM | 29 µM | > 30 µM | > 30 µM | > 30 µM
14 | CC[C@@H](C(N)=O)N1CCCC1=O | > 30 µM | > 30 µM | > 30 µM | > 30 µM | > 30 µM | > 30 µM | > 30 µM | > 30 µM | > 30 µM | > 30 µM | > 30 µM | 
15 | Cc1cc(C)c(NC(=O)CN(CC(=O)O)CC(=O)O)c(C)c1Br [MEBROFENIN] | > 30 µM |  |  | > 30 µM | > 30 µM |  |  |  | > 30 µM |  |  | > 30 µM
16 | COC1=C(OC)C(=O)C(C/C=C(\C)CC/C=C(\C)CC/C=C(\C)CC/C=C(\C)CC/C=C(\C)CC/C=C(\C)CC/C=C(\C)CC/C=C(\C)CC/C=C(\C)CCC=C(C)C)=C(C)C1=O [UBIDECARENONE] | > 30 µM |  |  | > 30 µM | > 30 µM |  |  |  | > 30 µM |  |  | > 30 µM
17 | O=[N+]([O-])c1cn2c(n1)OC[C@@H](OCc1ccc(OC(F)(F)F)cc1)C2 [PRETOMANID] | > 10 µM |  | > 30 µM |  |  |  | > 10 µM | > 10 µM |  | > 30 µM | > 10 µM | > 10 µM
18 | COc1cc2nc(N3CCN(C(=O)c4ccco4)CC3)nc(N)c2cc1OC [PRAZOSIN] | > 30 µM | > 30 µM | > 30 µM | > 10 µM |  | > 10 µM | > 10 µM | > 10 µM |  | > 30 µM | > 10 µM | > 10 µM
